Experimental data reported in publication PMC9122897, “SHR1032, a novel STING agonist, stimulates anti-tumor immunity and directly induces AML apoptosis” (Scientific Reports, 2022).

Experiments:
MOLM-16 cells [1] = assay: Western blot of TBK1 and STING phosphorylation; type: cell-based, human; settings: MOLM-16, 1 µM
Protocol: (§1) (a–d) AML cells were treated with STING agonists and standard of care cytarabine, and cell viability was measured by CellTiter Glo in (a) THP1-STING-R232, (b) THP1-STING-KO, (c) MV-4-11 and (d) MOLM-16. (e) MV-4-11, MOLM-16 and THP1-STING-KO cells were stimulated with 1 µM of SHR1032 for the indicated time points. The amount of pTBK1, total TBK1, pSTING, total STING and α-tubulin was measured by Western blot. pSTING phosphorylated STING. THP1 reporter cells were treated for 24 h with a total of 100 k cells and 150 ul media in each well a 96-well plate. Following the incubation, 20 µl of supernatant was transferred to an opaque 96 well ½ area plate and incubated for 30 s with 50 µl of QUANTI-Luc substrate (InvivoGen) per manufacturer’s instructions. Luminescence signal was measured using Tecan infinite M1000. EC50 values were calculated using non-linear regression analysis of GraphPad Prism. Cell growth was monitored by CellTiter-Glo Luminescent Cell Viability Assay (Promega) per manufacture’s protocol. GI50 values were calculated using non-linear regression analysis of GraphPad Prism. Cell lysates for western blotting were made in RIPA buffer (Sigma) with Halt Protease and Phosphatase Inhibitors (Thermo Scientific). Antibodies against pSTING, TBK1, pTBK1 and tubulin were purchased from Cell Signaling Technologies, and anti-STING was purchased from Protein Tech.

MV4-11 cells [2] = assay: Western blot of TBK1 and STING phosphorylation; type: cell-based, human; settings: MV4-11, 1 µM
Protocol: as §1

THP1-STING-KO cells [3] = assay: Western blot of TBK1 and STING phosphorylation; type: cell-based, human; settings: 1 µM
Protocol: as §1

[4] = tested on: mouse RAW164.7 macrophage cells; assay: IFNβ ELISA; type: cell-based; settings: 5 h, vs ADU-S100
Protocol: (§2) Figure 2 SHR1032 specifically and potently activates STING signaling pathway. IRF luciferase reporter assays in (a) THP1-STING-R232, THP1-STING-H232, THP1-STING-HAQ, and THP1-STING-KO cells. Cells were stimulated for 24 h with the indicated STING compounds and assessed for luciferase activity. IFNβ production and activation of cGAS-STING signaling pathway in (b) human THP1-STING-R232, human PBMCs from a donor homozygous for the R232 variant, cynomolgus PBMC, and mouse RAW164.7 macrophage cells were treated with STING agonists for 5 h. IFNβ in media was quantified by human or mouse ELISA kits respectively. (c) THP1-STING-R232 cells and mouse RAW164.7 macrophage cells were stimulated with 40 µM of ADU-S100 or 10 µM of SHR1032 for the indicated time points. The amount of pTBK1, total TBK1, STING and α-tubulin was measured by western blotting.
(§3) Human and Cynomolgous PBMC’s were thawed and spun down in Lymphocyte media (ZENBIO) and resuspended in media to 1.5 x 10^6 cells/ml density. […] Human and monkey IFN-β protein concentration was measured using human IFN-β Quantikine ELISA Kits (R&D Systems) per manufacture’s protocol. Mouse IFN-β was measured using mouse IFN-β Quantikine ELISA Kits (R&D Systems) per manufacture’s protocol. Mouse TNFα, IFN-β and IL-6 in the tumor lysates and plasma was measured by Quantikine ELISA Kits (R&D Systems) per manufacture’s protocol.

human PBMCs = assay: IFNβ ELISA; type: cell-based; settings: 5 h, vs ADU-S100
Protocol: as §2, §3

THP1-STING-R232 cells = assay: Western blot of TBK1 phosphorylation; type: cell-based, human; settings: 10 µM SHR1032 vs 40 µM ADU-S100
Protocol: as §2
THP1 reporter cells were treated for 24 h with a total of 100 k cells and 150 ul media in each well a 96-well plate. […] Luminescence signal was measured using Tecan infinite M1000. EC50 values were calculated using non-linear regression analysis of GraphPad Prism. Cell growth was monitored by CellTiter-Glo Luminescent Cell Viability Assay (Promega) per manufacture’s protocol. GI50 values were calculated using non-linear regression analysis of GraphPad Prism. […]

MOLM-16 cells [5] = assay: Annexin V staining by flow cytometry; type: cell-based, human; settings: MOLM-16, 16 h; compared to cytarabine
Protocol: (§4) Figure 5 Cell apoptosis induced by SHR1032 in AML cell lines is independent of type I interferon. (a–d) RNA-Seq analysis of THP1-STING-R232, THP1-STING-KO and MV4-11 AML cells treated with 1 µM of SHR1032 for 4 h. […] (d) ANNEXIN V staining analysis with flow cytometry in MV4-11, MOLM-16, THP1-STING-WT and THP1-STING-KO cells. (e) Cell viability analysis by CellTiter Glo in THP1-IRFAR2-WT or -KO cells.
(§5) Cells were incubated with compounds or DMSO for 16 h in a 6-well plate (0.5 × 10^6 cells/well in 2 ml of media). After incubation, cells were collected and washed once in stain buffer (BD Biosciences). Samples were stained with FITC_Annexin V (BioLegend) for 15 min at room temperature. Then the cells were washed twice and resuspended in 200 µl stain buffer, and analyzed with Guava EasyCyte (Millipore).

MV4-11 cells [6] = assay: Annexin V staining by flow cytometry; type: cell-based, human; settings: MV4-11, 16 h; compared to cytarabine
Protocol: as §4, §5

THP1-STING-WT cells = assay: Annexin V staining by flow cytometry; type: cell-based, human; settings: 16 h, compared to cytarabine
Protocol: as §4, §5

THP1-STING-KO cells [7] = assay: Annexin V staining by flow cytometry; type: cell-based, human; settings: 16 h
Protocol: as §4, §5

CCn1nc(C)cc1C(=O)Nc1nc2cc(C(N)=O)cc(OC)c2n1CCC[C@H]1COc2cc(C(N)=O)cc3nc(NC(=O)c4cc(C)nn4CC)n1c23 [SHR1032]
TBK1 and STING phosphorylation (MOLM-16 cells [1]): induced TBK1 and STING phosphorylation | TBK1 and STING phosphorylation (MV4-11 cells [2]): induced TBK1 and STING phosphorylation | TBK1 and STING phosphorylation (THP1-STING-KO cells [3]): not in THP1-STING-KO cells | mouse IFNβ production [4]: lower than that with that of ADU-S100, but still detectable | human IFNβ production (human PBMCs): much greater amount of human IFNβ than ADU-S100 | TBK1 phosphorylation (THP1-STING-R232 cells): higher level of TBK1 phosphorylation than ADU-S100 | apoptosis (Annexin V) (MOLM-16 cells [5]): much higher level of apoptosis | apoptosis (Annexin V) (MV4-11 cells [6]): much higher level of apoptosis | apoptosis (Annexin V) (THP1-STING-WT cells): comparable level of apoptosis | apoptosis (Annexin V) (THP1-STING-KO cells [7]): no effect
